Data: patent US10501438B2, “Aryl-substituted dihydroquinolinones, their preparation and their use as pharmaceuticals” (NEOMED Institute, priority 2015, dated 2019)

Experiments:
BRD4(BD1) = BRD4(BD1) (Homo sapiens (Human), UniProt O60885); assay: In vitro bromodomain inhibition assay (AlphaLISA); format: binding; details: His-tagged BRD4 BD1 200 nM, biotinylated H4-tetraacetyl peptide 200 nM
Procedure: a) In Vitro Bromodomain Inhibition Assay
To measure activity of bromodomain inhibitors, a His-epitope tagged BRD4 BD149-170 is purchased from BPS Bioscience. BRD4 binding and inhibition is assessed by monitoring the engagement of biotinylated H4-tetraacetyl peptide (H4K5/8/12/16; AnaSpec #64989-025) with the target using the AlphaLISA technology (Perkin-Elmer). Specifically, in a 384 well OptiPlate, BRD4(BD1) (200 nM final) is pre-incubated with either DMSO (final 1.0% DMSO) or a compound dilution series in DMSO. All reagents are diluted in assay buffer containing 50 mM HEPES (pH 7.4), 100 mM NaCl, 0.1% (w/v) BSA, and 0.05% (w/v) CHAPS. After a 30 min incubation at rt, H4 peptide is added (200 nM final) and the reaction is incubated an additional 30 min at rt. Alpha streptavidin donor beads and AlphaLISA nickel chelate acceptor beads are then added to a final concentration of 10 μg/mL each. After one hour, equilibration plates are read on an Envision instrument and IC50s calculated using a four parameter non-linear curve fit (results are shown in Table 2).

[1] = system: human C-Myc transcription in MV-4-11 cells; assay: Transcription of human C-Myc in human leukemic MV-4-11 cells (QuantiGene 2.0); format: cell-based; details: Homo sapiens, MV4-11, 4 h, inhibition of C-Myc mRNA, 4 hours treatment
Procedure: b) Transcription of Human C-Myc in Human Leukemic MV-4-11 Cells:
The effect of compounds on transcription of human C-Myc gene is monitored in human B-myelomonocytic leukemia cell line MV-4-11 (from American Type Culture Collection (ATCC), Manassas, Va., USA) using QuantiGene 2.0 assay kit (Affymetrix, Santa Clara, Calif., USA).
Typically, 8,000 MV-4-11 cells are plated in sterile 96-well plates (Costar #3598 from Fisher Scientific Canada, Ottawa, Ontario, Canada) in Iscove's medium supplemented with 10% fetal bovine serum, glutamine (2 mM), and penicillin (100 I.U.) and streptomycin (100 μg/mL) (all from Wisent Inc., St. Bruno, Quebec, Canada). Compounds are dissolved in DMSO at 30 mM. A series of 1:3 dilutions are first made in DMSO, and further 1:100 dilutions are made in serum-containing cell culture media. The final concentration of DMSO is 0.1% in cell culture media. After cells are treated with various concentrations of test compound for 4 hours, cells are lysed using Quantigene 2.0 sample processing kit (#QS0100). C-Myc mRNA is detected using a QuantiGene 2.0 assay kit (#QS0009) with gene-specific probe to human C-Myc (#SA-50182) following the manufacturer's recommendations. Luminescene signals are read on Flexstation II microplate reader (Molecular Devices, Sunnyvale, Calif., USA).

SMILES | IC50 (BRD4(BD1)) | IC50 [1]
Cc1cc(-c2cc3c(c(Cc4ccccc4)c2)N(C)C(=O)CC3)cn(C)c1=O [Compound 2, 8-benzyl-6-(1,5-dimethyl-6-oxo-3-pyridyl)-1-methyl-3,4-dihydroquinolin-2-one] | 560 nM | 210 nM
Cc1cc(-c2cc3c(c(Nc4ccccc4)c2)NC(=O)CC3)cn(C)c1=O [Compound 3, 8-anilino-6-(1,5-dimethyl-6-oxo-3-pyridyl)-3,4-dihydro-1H-quinolin-2-one] | 510 nM | 580 nM
Cc1cc(-c2cc3c(c(NC4CCCCC4)c2)NC(=O)CC3)cn(C)c1=O [Compound 6, 8-(cyclohexylamino)-6-(1,5-dimethyl-6-oxo-3-pyridyl)-3,4-dihydro-1H-quinolin-2-one] | 810 nM | 750 nM
Cc1cc(-c2cc3c(cc2Cc2ccccc2)N(C)C(=O)CC3)cn(C)c1=O [Compound 10, 7-benzyl-6-(1,5-dimethyl-6-oxo-3-pyridyl)-1-methyl-3,4-dihydroquinolin-2-one] | 480 nM | 250 nM
Cc1cc(-c2cc3c(c(Nc4cccnc4)c2)NC(=O)CC3)cn(C)c1=O [Compound 11, 6-(1,5-dimethyl-6-oxo-3-pyridyl)-8-(3-pyridylamino)-3,4-dihydro-1H-quinolin-2-one] | 350 nM | 2120 nM
Cc1cc(-c2cc3c(c(NCc4ccccn4)c2)NC(=O)CC3)cn(C)c1=O [Compound 12, 6-(1,5-dimethyl-6-oxo-3-pyridyl)-8-(2-pyridylmethylamino)-3,4-dihydro-1H-quinolin-2-one] | 110 nM | 90 nM
Cc1cc(-c2cc3c(c(CN4CCCCC4)c2)NC(=O)CC3)cn(C)c1=O [Compound 13, 6-(1,5-dimethyl-6-oxo-3-pyridyl)-8-(1-piperidylmethyl)-3,4-dihydro-1H-quinolin-2-one] | 1300 nM | 1580 nM
Cc1cc(-c2cc3c(c(N(C)c4ccccc4)c2)NC(=O)CC3)cn(C)c1=O [Compound 14, 6-(1,5-dimethyl-6-oxo-3-pyridyl)-8-(N-methylanilino)-3,4-dihydro-1H-quinolin-2-one] | 350 nM | 190 nM
Cc1cc(-c2cc3c(c(OCc4nccs4)c2)NC(=O)CC3)cn(C)c1=O [Compound 83, 6-(1,5-dimethyl-6-oxo-1,6-dihydropyridin-3-yl)-8-(thiazol-2-ylmethoxy)-3,4-dihydroquinolin-2(1H)-one] |  | 510 nM
Cc1cc(-c2cc3c(c(OCc4cocn4)c2)NC(=O)CC3)cn(C)c1=O [Compound 84, 6-(1,5-dimethyl-6-oxo-1,6-dihydropyridin-3-yl)-8-(oxazol-4-ylmethoxy)-3,4-dihydroquinolin-2(1H)-one] |  | 510 nM
Cc1cc(-c2cc3c(cc2Cc2cccc(F)c2)NC(=O)CC3)cn(C)c1=O [Compound 85, 6-(1,5-dimethyl-6-oxo-1,6-dihydropyridin-3-yl)-7-(3-fluorobenzyl)-3,4-dihydroquinolin-2(1H)-one] |  | 350 nM
Cc1cc(-c2cc3c(cc2Cc2ccc(F)cc2)NC(=O)CC3)cn(C)c1=O [Compound 90, 6-(1,5-dimethyl-6-oxo-1,6-dihydropyridin-3-yl)-7-(4-fluorobenzyl)-3,4-dihydroquinolin-2(1H)-one] |  | 240 nM
Cc1cc(-c2cc3c(c(CN(C)C4CCCC4)c2)NC(=O)CC3)cn(C)c1=O [Compound 97, 8-((cyclopentyl(methyl)amino)methyl)-6-(1,5-dimethyl-6-oxo-1,6-dihydropyridin-3-yl)-3,4-dihydroquinolin-2(1H)-one] |  | 790 nM
CC(=O)N(Cc1cc(-c2cc(C)c(=O)n(C)c2)cc2c1NC(=O)CC2)C1CCCC1 [Compound 98, N-cyclopentyl-N-((6-(1,5-dimethyl-6-oxo-1,6-dihydropyridin-3-yl)-2-oxo-1,2,3,4-tetrahydroquinolin-8-yl)methyl)acetamide] |  | 90 nM
Cc1cc(-c2cc(COC3CCCC3)c3c(c2)NC(=O)CC3)cn(C)c1=O [Compound 100, 5-((cyclopentyloxy)methyl)-7-(1,5-dimethyl-6-oxo-1,6-dihydropyridin-3-yl)-3,4-dihydroquinolin-2(1H)-one] |  | 610 nM
Cc1cc(-c2cc3c(cc2Cc2cccnc2)CCC(=O)N3)cn(C)c1=O [Compound 101, 7-(1,5-dimethyl-6-oxo-1,6-dihydropyridin-3-yl)-6-(pyridin-3-ylmethyl)-3,4-dihydroquinolin-2(1H)-one] |  | 2680 nM

Continued, values first:

IC50 (BRD4(BD1)) | IC50 [1] | SMILES
410 nM | 160 nM | Cc1cc(-c2cc3c(c(Cc4ccccc4)c2)NC(=O)CC3)cn(C)c1=O [Compound 1, 8-benzyl-6-(1,5-dimethyl-6-oxo-3-pyridyl)-3,4-dihydro-1H-quinolin-2-one]
280 nM | 90 nM | Cc1cc(-c2cc3c(c(NCc4ccccc4)c2)NC(=O)CC3)cn(C)c1=O [Compound 4, 8-(benzylamino)-6-(1,5-dimethyl-6-oxo-3-pyridyl)-3,4-dihydro-1H-quinolin-2-one]
140 nM | 90 nM | Cc1cc(-c2ccc3c(c2Cc2ccccc2)CCC(=O)N3)cn(C)c1=O [Compound 7, 5-benzyl-6-(1,5-dimethyl-6-oxo-3-pyridyl)-3,4-dihydro-1H-quinolin-2-one]
280 nM | 240 nM | Cc1cc(-c2cc3c(cc2Cc2ccccc2)NC(=O)CC3)cn(C)c1=O [Compound 8, 7-benzyl-6-(1,5-dimethyl-6-oxo-3-pyridyl)-3,4-dihydro-1H-quinolin-2-one]
270 nM | 260 nM | Cc1cc(-c2ccc3c(c2Cc2ccccc2)CCC(=O)N3C)cn(C)c1=O [Compound 9, 5-benzyl-6-(1,5-dimethyl-6-oxo-3-pyridyl)-1-methyl-3,4-dihydroquinolin-2-one]
 | 370 nM | Cc1cc(-c2ccc3c(c2Cc2cccc(F)c2)CCC(=O)N3)cn(C)c1=O [Compound 86, 6-(1,5-dimethyl-6-oxo-1,6-dihydropyridin-3-yl)-5-(3-fluorobenzyl)-3,4-dihydroquinolin-2(1H)-one]
 | 100 nM | Cc1cc(-c2ccc3c(c2Cc2ccc(C#N)cc2)CCC(=O)N3)cn(C)c1=O [Compound 87, 4-((6-(1,5-dimethyl-6-oxo-1,6-dihydropyridin-3-yl)-2-oxo-1,2,3,4-tetrahydroquinolin-5-yl)methyl)benzonitrile]
 | 260 nM | Cc1cc(-c2ccc3c(c2Cc2cccc(C#N)c2)CCC(=O)N3)cn(C)c1=O [Compound 88, 3-((6-(1,5-dimethyl-6-oxo-1,6-dihydropyridin-3-yl)-2-oxo-1,2,3,4-tetrahydroquinolin-5-yl)methyl)benzonitrile]
 | 560 nM | Cc1cc(-c2ccc3c(c2Cc2ccccc2C#N)CCC(=O)N3)cn(C)c1=O [Compound 89, 2-((6-(1,5-dimethyl-6-oxo-1,6-dihydropyridin-3-yl)-2-oxo-1,2,3,4-tetrahydroquinolin-5-yl)methyl)benzonitrile]
 | 100 nM | Cc1cc(-c2ccc3c(c2Cc2ccc(F)cc2)CCC(=O)N3)cn(C)c1=O [Compound 91, 6-(1,5-dimethyl-6-oxo-1,6-dihydropyridin-3-yl)-5-(4-fluorobenzyl)-3,4-dihydroquinolin-2(1H)-one]
 | 760 nM | Cc1cc(-c2cc3c(cc2/C=C/c2ccccc2)NC(=O)CC3)cn(C)c1=O [Compound 93, (E)-6-(1,5-dimethyl-6-oxo-1,6-dihydropyridin-3-yl)-7-styryl-3,4-dihydroquinolin-2(1H)-one]
 | 730 nM | Cc1cc(-c2ccc3c(c2/C=C/c2ccccc2)CCC(=O)N3)cn(C)c1=O [Compound 94, (E)-6-(1,5-dimethyl-6-oxo-1,6-dihydropyridin-3-yl)-5-styryl-3,4-dihydroquinolin-2(1H)-one]
 | 30 nM | Cc1cc(-c2ccc3c(c2C(C)c2ccccc2)CCC(=O)N3)cn(C)c1=O (centres unmarked) [Compound 95, 6-(1,5-dimethyl-6-oxo-1,6-dihydropyridin-3-yl)-5-(1-phenylethyl)-3,4-dihydroquinolin-2(1H)-one]
 | 780 nM | Cc1cc(-c2ccc3c(c2CCc2ccccc2)CCC(=O)N3)cn(C)c1=O [Compound 96, 6-(1,5-dimethyl-6-oxo-1,6-dihydropyridin-3-yl)-5-phenethyl-3,4-dihydroquinolin-2(1H)-one]
 | 840 nM | Cc1cc(-c2cc(Cc3ccccc3)c3c(c2)NC(=O)CC3)cn(C)c1=O [Compound 99, 5-benzyl-7-(1,5-dimethyl-6-oxo-1,6-dihydropyridin-3-yl)-3,4-dihydroquinolin-2(1H)-one]
